Laboratory results as given in patent publication US11673910B2, “Macrolides with modified desosamine sugars and uses thereof” (Zikani Therapeutics, Inc., priority 2017, dated 2023).
≈ marks a conversion by molar mass, not a printed value.

Columns and labels:
Format in all cases: cell-based
[1] = test system: K. pneumoniae strain MP-548; test: Broth dilution MIC determination (CLSI) against K. pneumoniae strain MP-548; conditions: Klebsiella pneumoniae, MP548
Summary of the method: (§1)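 Reported scores reflect MIC ranges, with +++ at or below 4 mg/L, ++ from 8 up to under 32 mg/L, and + at 32 mg/L or higher. The macrolides were tested following CLSI broth dilution procedures.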

[2] = test system: P. aeruginosa strain MP-3; test: Broth dilution MIC determination (CLSI) against P. aeruginosa strain MP-3; conditions: Pseudomonas aeruginosa, MP3
Summary of the method: as §1

[3] = test system: S. aureus strain MP-12; test: Broth dilution MIC determination (CLSI) against S. aureus strain MP-12; conditions: Staphylococcus aureus, MP12, strain MP-12
Summary of the method: as §1

[4] = test system: A. baumannii strain MP-15; test: Broth dilution MIC determination (CLSI) against A. baumannii strain MP-15; conditions: Acinetobacter baumannii, MP15
Summary of the method: as §1

[5] = test system: E. coli strain MP-4; test: Broth dilution MIC determination (CLSI) against E. coli strain MP-4; conditions: Escherichia coli, MP4
Summary of the method: as §1

CCCCCCCCNCC1CC(N(C)C)C(O)[C@H](O[C@@H]2[C@@H](C)C(=O)C(C)C(=O)O[C@H](CC)[C@@]3(C)OC(=O)N[C@@H]3[C@@H](C)NC[C@H](C)C[C@@]2(C)OC)O1 (some centres unmarked) [Compound 54]
MIC [1]: ≥ 32 µg/mL | MIC [2]: ≥ 32 µg/mL | MIC [3]: ≥ 32 µg/mL | MIC [4]: ≥ 32 µg/mL | MIC [5]: 8 to 32 µg/mL (≈ 10.8 to 43.2 µM)

CC[C@H]1OC(=O)[C@]2(C)CC/C(=N\O)CO[C@](C)(C[C@@H](C)CN[C@H](C)[C@H]3NC(=O)O[C@@]31C)[C@H](OC1OC(C)CC(N(C)C)C1O)[C@@H](C)C2=O (some centres unmarked) [Compound 228]
MIC [1]: ≥ 32 µg/mL | MIC [2]: ≥ 32 µg/mL | MIC [3]: ≥ 32 µg/mL | MIC [4]: ≥ 32 µg/mL | MIC [5]: ≥ 32 µg/mL

CC[C@H]1OC(=O)[C@@]2(C)CCO[C@](C)(C[C@@H](C)CN[C@H](C)[C@H]3NC(=O)O[C@@]31C)[C@H](O[C@@H]1O[C@H](CN3CCCCC3)C[C@H](N(C)C)[C@H]1O)[C@@H](C)C2=O [Compound 199]
MIC [1]: ≥ 32 µg/mL | MIC [2]: ≥ 32 µg/mL | MIC [3]: ≥ 32 µg/mL | MIC [4]: ≥ 32 µg/mL | MIC [5]: ≥ 32 µg/mL

CC[C@H]1OC(=O)C(C)C(=O)[C@H](C)[C@@H](O[C@@H]2OC(CNCc3cccc(C#N)c3)CC(N(C)C)C2O)[C@](C)(OC)C[C@@H](C)CN[C@H](C)[C@H]2NC(=O)O[C@@]21C (some centres unmarked) [Compound 41]
MIC [1]: ≥ 32 µg/mL | MIC [2]: ≥ 32 µg/mL | MIC [3]: ≥ 32 µg/mL | MIC [4]: ≥ 32 µg/mL | MIC [5]: ≤ 4 µg/mL
